Source: PubChem BioAssay (NCI)
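Compound exposure: 48 hours, 5 concentrations, 96-well plates. TGI marks complete inhibition of growth.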

Columns and labels:
Experiment in all cases: NCI-60 cell line screen, 48 h
[1] = test system: ACHN renal
[2] = test system: MDA-N
[3] = test system: M14 melanoma
[4] = test system: SF-268 CNS
[5] = test system: SK-MEL-5 melanoma
[6] = test system: U251 CNS
[7] = test system: RXF 393 renal
[8] = test system: HCT-15 colon
[9] = test system: HOP-62 NSCLC
[10] = test system: MCF7 breast
[11] = test system: NCI-H226 lung
[12] = test system: SNB-19 CNS
[13] = test system: NCI-H23 lung
[14] = test system: SF-539 CNS
[15] = test system: SK-MEL-2 melanoma
[16] = test system: SW-620 colon
[17] = test system: PC-3 prostate
[18] = test system: MDA-MB-231 breast
[19] = test system: EKVX NSCLC
[20] = test system: SK-MEL-28 melanoma
[21] = test system: LOX IMVI melanoma
[22] = test system: OVCAR-5 ovarian
[23] = test system: T-47D breast
[24] = test system: A549 NSCLC
[25] = test system: SNB-75 CNS
[26] = test system: DU-145 prostate
[27] = test system: HL-60(TB) leukemia
[28] = test system: CCRF-CEM leukemia
[29] = test system: MALME-3M melanoma
[30] = test system: HOP-92 NSCLC
[31] = test system: HCC-2998 colon
[32] = test system: TK-10 renal
[33] = test system: A498 renal
[34] = test system: IGROV1 ovarian
[35] = test system: OVCAR-3 ovarian
[36] = test system: OVCAR-8 ovarian
[37] = test system: MOLT-4 leukemia
[38] = test system: COLO 205 colon
[39] = test system: HS 578T breast
[40] = test system: RPMI-8226 leukemia
[41] = test system: SR leukemia
[42] = test system: NCI-H460 lung
[43] = test system: CAKI-1 renal
[44] = test system: HT29 colon
[45] = test system: UO-31 renal
[46] = test system: MDA-MB-435
[47] = test system: KM12 colon
[48] = test system: BT-549 breast
[49] = test system: SN12C renal
[50] = test system: NCI-H522 lung
[51] = test system: NCI/ADR-RES ovarian
[52] = test system: 786-0 renal
[53] = test system: SK-OV-3 ovarian
[54] = test system: SF-295 CNS
[55] = test system: HCT-116 colon
[56] = test system: K-562 leukemia
[57] = test system: UACC-62 melanoma
[58] = test system: UACC-257 melanoma
[59] = test system: OVCAR-4 ovarian

## CCOP(=O)(COCCn1ncc(=O)[nH]c1=O)OCC
[1]
  TGI: > 100 µM
[2]
  TGI: > 100 µM
[3]
  TGI: > 100 µM
[4]
  TGI: > 100 µM
[5]
  TGI: > 100 µM
[6]
  TGI: > 100 µM
[7]
  TGI: > 100 µM
[8]
  TGI: > 100 µM
[9]
  TGI: > 100 µM
[10]
  TGI: > 100 µM
[11]
  TGI: > 100 µM
[12]
  TGI: > 100 µM
[13]
  TGI: > 100 µM
[14]
  TGI: > 100 µM
[15]
  TGI: > 100 µM
[16]
  TGI: > 100 µM
[17]
  TGI: > 100 µM
[18]
  TGI: > 100 µM
[19]
  TGI: > 100 µM
[20]
  TGI: > 100 µM
[21]
  TGI: > 100 µM
[22]
  TGI: > 100 µM
[23]
  TGI: > 100 µM
[24]
  TGI: > 100 µM
[25]
  TGI: > 100 µM
[26]
  TGI: > 100 µM
[27]
  TGI: > 100 µM
[28]
  TGI: > 100 µM
[29]
  TGI: > 100 µM
[30]
  TGI: > 100 µM
[31]
  TGI: > 100 µM
[32]
  TGI: > 100 µM
[33]
  TGI: > 100 µM
[34]
  TGI: > 100 µM
[35]
  TGI: > 100 µM
[36]
  TGI: > 100 µM
[37]
  TGI: > 100 µM
[38]
  TGI: > 100 µM
[39]
  TGI: > 100 µM
[40]
  TGI: > 100 µM
[41]
  TGI: > 100 µM
[42]
  TGI: > 100 µM
[43]
  TGI: > 100 µM
[44]
  TGI: > 100 µM
[45]
  TGI: > 100 µM
[46]
  TGI: > 100 µM
[47]
  TGI: > 100 µM
[48]
  TGI: > 100 µM
[49]
  TGI: > 100 µM
[50]
  TGI: > 100 µM
[51]
  TGI: > 100 µM

## CC1CC[C@@]2(OC1)OC1C[C@H]3[C@@H]4CC[C@H]5CC(OC6OC(CO)C(O)C(OC7OC(CO)C(OC8OC(CO)C(O)C(OC9OC(CO)C(O)C(O)C9O)C8OC8OC(CO)C(O)C(O)C8O)C(O)C7O)C6O)[C@H](O)CC5(C)[C@H]4CCC3(C)C1[C@@H]2C (stereo not given in full)
[1]
  TGI: 7.4 µM
[2]
  TGI: 13.8 µM
[3]
  TGI: 17.6 µM
[52]
  TGI: 6.76 µM
[4]
  TGI: 11.3 µM
[5]
  TGI: 13.6 µM
[53]
  TGI: 14.1 µM
[6]
  TGI: 9.43 µM
[7]
  TGI: 3.27 µM
[8]
  TGI: 19.3 µM
[9]
  TGI: 11.3 µM
[10]
  TGI: 5.43 µM
[11]
  TGI: 13.3 µM
[12]
  TGI: 9.47 µM
[13]
  TGI: 12.7 µM
[14]
  TGI: 6.76 µM
[15]
  TGI: 9.78 µM
[54]
  TGI: 9.39 µM
[16]
  TGI: 8.32 µM
[17]
  TGI: 6.66 µM
[55]
  TGI: 11.5 µM
[18]
  TGI: 5.87 µM
[19]
  TGI: 10.8 µM
[20]
  TGI: 14.5 µM
[21]
  TGI: 9.05 µM
[22]
  TGI: 12.9 µM
[23]
  TGI: 4.58 µM
[24]
  TGI: 21.6 µM
[25]
  TGI: 10.9 µM
[26]
  TGI: 12.1 µM
[27]
  TGI: 9.3 µM
[28]
  TGI: 10.2 µM
[29]
  TGI: 15.1 µM
[30]
  TGI: 12.1 µM
[31]
  TGI: 4.71 µM
[32]
  TGI: 11.8 µM
[33]
  TGI: 3.16 µM
[34]
  TGI: 4.59 µM
[35]
  TGI: 1.93 µM
[36]
  TGI: 6.67 µM
[56]
  TGI: 12.4 µM
[37]
  TGI: 16.4 µM
[38]
  TGI: 6.04 µM
[39]
  TGI: 6.16 µM
[40]
  TGI: 12.9 µM
[41]
  TGI: 2.98 µM
[42]
  TGI: 15.5 µM
[43]
  TGI: 11.3 µM
[44]
  TGI: 11.1 µM
[45]
  TGI: 6.9 µM
[57]
  TGI: 16.6 µM
[58]
  TGI: 16.9 µM
[59]
  TGI: 9.55 µM
[46]
  TGI: 14.6 µM
[47]
  TGI: 12.2 µM
[48]
  TGI: 10.5 µM
[49]
  TGI: 9.03 µM
[50]
  TGI: 5.35 µM
[51]
  TGI: 12.5 µM
